pIC50: −log10 of the molar value. Structures can show the parent of a compound that is named as a salt. Where two headings read alike, the source gives them in different places.
Assays:
[1] = target: T1, Human fibrinogen receptor (αIIbβ3) (Homo sapiens, UniProt P05106+P08514); experiment: Purified IIb/IIIa receptor assay (solid phase receptor assay, competition with biotinylated vitronectin); format: binding; settings: purified receptor from outdated platelets; 1 nM biotinylated vitronectin; highest concentration tested 1.0 x 10^-4 M
T1 construct: Human fibrinogen receptor (αIIbβ3) was purified from outdated platelets; from tissue; host or cells: outdated (human) platelets
Text: PURIFIED IIb/IIIa RECEPTOR ASSAY
Human fibrinogen receptor (αIIbβ3) was purified from outdated platelets. (Pytela, R., Pierschbacher, M.D., Argraves, S., Suzuki, S., and Rouslahti, E. "Arginine-Glycine-Aspartic acid adhesion receptors", Methods in Enzymology 144(1987):475-489.) Human vitronectin was purified from fresh frozen plasma as described in Yatohgo, T., Izumi, M., Kashiwagi, H., and Hayashi, M., "Novel purification of vitronectin from human plasma by heparin affinity chromatography," Cell Structure and Function 13(1988):281-292. Biotinylated human vitronectin was prepared by coupling NHS-biotin from Pierce Chemical Company (Rockford, IL) to purified vitronectin as previously described. (Charo, I.F., Nannizzi, L., Phillips, D.R., Hsu, M.A., Scarborough, R.M., "Inhibition of fibrinogen binding to GP IIb/IIIa by a GP IIIa peptide", J. Biol. Chem. 266(3)(1991): 1415-1421.) Assay buffer, OPD substrate tablets, and RIA grade BSA were obtained from Sigma (St. Louis, MO). Anti-biotin antibody was obtained from Calbiochem (La Jolla, CA). Linbro microtiter plates were obtained from Flow Labs (McLean, VA). ADP reagent was obtained from Sigma (St. Louis, MO).
This assay is essentially the same reported in Niiya, K., Hodson, E., Bader, R., Byers-Ward, V. Koziol, J.A., Plow, E.F. and Ruggeri, Z.M., "Increased surface expression of the membrane glycoprotein IIb/IIIa complex induced by platelet activation: Relationships to the binding of fibrinogen and platelet aggregation", Blood 70(1987):475-483. The purified human fibrinogen receptor (αIIbβ3) was diluted from stock solutions to 1.0 µg/mL in Tris-buffered saline containing 1.0 mM Ca^++, Mg^++, and Mn^++, pH 7.4 (TBS^+++). The diluted receptor was immediately transferred to Linbro microtiter plates at 100 µL/well (100 ng receptor/well). The plates were sealed and incubated overnight at 4°C to allow the receptor to bind to the wells. All remaining steps were at room temperature. The assay plates were emptied and 200 µL of 1% RIA grade BSA in TBS^+++ (TBS^+++/BSA) were added to block exposed plastic surfaces. Following a 2 hour incubation, the assay plates were washed with TBS^+++ using a 96 well plate washer. Logarithmic serial dilution of the test compound and controls were made starting at a stock concentration of 2 mM and using 2 nM biotinylated vitronectin in TBS^+++/BSA as the diluent. This premixing of labeled ligand with test (or control) ligand, and subsequent transfer of 50 µL aliquots to the assay plate was carried out with a CETUS Propette robot; the final concentration of the labeled ligand was 1 nM and the highest concentration of test compound was 1.0 x 10^-4 M. The competition occurred for two hours after which all wells were washed with a plate washer as before. Affinity purified horseradish peroxidase labeled goat anti-biotin antibody was diluted 1:3000 in TBS^+++/BSA and 125 µL were added to each well. After 30 minutes, the plates were washed and incubated with […] substrate in 100 mM/L citrate buffer, pH 5.0. The plate was read with a microtiter plate reader at a wavelength of 450 nm and when the maximum-binding control wells reached an absorbance of about 1.0, the final A450 were recorded for analysis. The data were analyzed using a macro written for use with the EXCEL™ spreadsheet program. The mean, standard deviation, and %CV were determined for duplicate concentrations. The mean A450 values were normalized to the mean of four maximum-binding controls (no competitor added)(B-MAX). The normalized values were subjected to a four parameter curve fit algorithm, [Robard et al., Int. […]

[2] = target: T2, Human vitronectin receptor (αvβ3) (Homo sapiens, UniProt P05106+P06756); experiment: Vitronectin adhesion assay (solid phase receptor assay, competition with biotinylated vitronectin); format: binding
T2 construct: Human vitronectin receptor (αvβ3) was purified from human placenta; from tissue; host or cells: human placenta
Protocol: VITRONECTIN ADHESION ASSAY
Human vitronectin receptor (αvβ3) was purified from human placenta as previously described [Pytela et al., Methods in Enzymology, 144:475-489 (1987)]. Human vitronectin was purified from fresh frozen plasma as previously described [Yatohgo et al., Cell Structure and Function, 13:281-292 (1988)]. Biotinylated human vitronectin was prepared by coupling NHS-biotin from Pierce Chemical Company (Rockford, IL) to purified vitronectin as previously described [Charo et al., J. Biol. Chem., 266(3):1415-1421 (1991)]. Assay buffer, OPD substrate tablets, and RIA grade BSA were obtained from Sigma (St. Louis, MO). Anti-biotin antibody was obtained from Calbiochem (La Jolla, CA). Linbro microtiter plates were obtained from Flow Labs (McLean, VA). ADP reagent was obtained from Sigma (St. Louis, MO).
This assay was essentially the same as previously reported [Niiya et al., Blood, 70:475-483 (1987)]. The purified human vitronectin receptor (αvβ3) was diluted from stock solutions to 1.0 µg/mL in Tris-buffered saline containing 1.0 mM Ca^++, Mg^++, and Mn^++, pH 7.4 (TBS^+++). The diluted receptor was immediately transferred to Linbro microtiter plates at 100 µL/well (100 ng receptor/well). The plates were sealed and incubated overnight at 4°C to allow the receptor to bind to the wells. All remaining steps were at room temperature. The assay plates were emptied and 200 µL of 1% RIA grade BSA in TBS^+++ (TBS^+++/BSA) were added to block exposed plastic surfaces. Following a 2 hour incubation, the assay plates were washed with TBS^+++ using a 96 well plate washer. Logarithmic serial dilution of the test compound and controls were made starting at a stock concentration of 2 mM and using 2 nM biotinylated vitronectin in TBS^+++/BSA as the diluent. This premixing of labeled ligand with test (or control) ligand, and subsequent transfer of 50 µL aliquots to the assay plate was carried out with a CETUS Propette robot; the final concentration of the labeled ligand was 1 nM and the highest concentration of test compound was 1.0 x 10^-4 M. The competition occurred for two hours after which all wells were washed with a plate washer as before. Affinity purified horseradish peroxidase labeled goat anti-biotin antibody was diluted 1:3000 in TBS^+++/BSA and 125 µL were added to each well. After 30 minutes, the plates were washed and incubated with OPD/H2O2 substrate in 100 mM/L Citrate buffer, pH 5.0. The plate was read with a microtiter plate reader at a wavelength of 450 nm and when the maximum-binding control wells reached an absorbance of about 1.0, the final A450 were recorded for analysis. The data were analyzed using a macro written for use with the EXCEL™ spreadsheet program. The mean, standard deviation, and %CV were determined for duplicate concentrations. The mean A450 values were normalized to the mean of four maximum-binding controls (no competitor added)(B-MAX). The normalized values were subjected to a four parameter curve fit algorithm [Rodbard et al., Int.

[3] = purified receptor from human placenta, 1 nM biotinylated vitronectin, highest concentration tested 1.0 x 10^-4 M, read-out: AvB3 IC50

SMILES	pIC50 [1]	pIC50 [2, 3]	pIC50 [2]
N#CN=C(NCc1ccccc1)Nc1cccc(C(=O)Nc2ccc(CCC(=O)O)cc2)c1 [Example 79, 4-[[[3-[[(cyanoimino)[(phenylmethyl)-amino]methyl]amino]phenyl]carbonyl]amino]-benzenepropanoic acid]	4.99	5.64	–
CCOC(=O)CS(=O)(=O)c1ccc(NC(=O)c2cccc(NC(=N)N)c2)cc1 [Example 80, ethyl [[4-[[[3-[(aminoiminomethyl)amino]phenyl]carbonyl]amino]phenyl]sulfonyl]acetate, monohydrate trifluoroacetate salt]	4.70	4.35	–
N=C(N)Nc1cccc(C(=O)Nc2ccc(SCC(=O)O)cc2)c1 [Example 82, [[4-[[[3-[(aminoiminomethyl)amino]phenyl]carbonyl]amino]phenyl]thio]acetic acid, trifluoroacetate]	6.48	6.58	–
N=C(N)Nc1cccc(NC(=O)Cc2ccc(OCC(=O)O)cc2)c1 [Example 84, [4-[2-[[3-[(aminoiminomethyl)amino]phenyl]amino]-2-oxoethyl]phenoxy]acetic acid, trifluoroacetate salt]	6.31	4.79	–
CC(Oc1ccc(NC(=O)c2cccc(NC(=N)N)c2)cc1)C(=O)O (centres unmarked) [Example 85, 2-[4-[[[3-[(aminoiminomethyl)amino]phenyl]. carbonyl]amino]phenoxy]propanoic acid, trifluoroacetate salt]	4.90	6.08	–
COC(=O)C(C)Oc1ccc(NC(=O)c2cccc(NC(=N)N)c2)cc1 (centres unmarked) [Example 85C]	4.18	4.40	–
N=C(N)Nc1cccc(C(=O)Nc2ccc(OC(C(=O)O)c3ccccc3)cc2)c1 (stereo not drawn) [Example 86, α-[4-[[[3-[(aminoiminomethyl)amino]phenyl]carbonyl]amino]phenoxy]benzeneacetic acid, trifluoroacetate salt]	5.50	6.51	–
CCOC(=O)COc1ccc(NC(=O)c2cccc(NC(=N)N)c2)cc1 [Example 89, ethyl [4-[[[3-[(aminoiminomethyl)amino]phenyl]carbonyl]amino]phenoxy]acetate, trifluoroacetate salt]	4.80	5.68	–
NC(N)=Nc1cccc(C(=O)Nc2ccc(CCC(=O)O)c(C(=O)O)c2)c1 [Example 101A, 4-[[[3-[(aminoiminomethyl)amino]phenyl]carbonyl]-amino]-2-carboxybenzenepropanoic acid, bis(trifluoroacetate) salt]	7.24	8.05	–
COC(=O)c1cc(NC(=O)c2cccc(NC(=N)N)c2)ccc1CCC(=O)O [Example 101B, 4-[[[3-[(aminoiminomethyl)amino]phenyl]carbonyl]-amino]-2-methoxycarbonyl)benzenepropanoic acid, bis(trifluoroacetate) salt]	6.54	7.46	–
O=C(O)CCc1ccc(NC(=O)c2cccc(NC3=NCCCN3)c2)cc1C(=O)O [Example 102, 2-carboxy-4-[[[3-[(1,4,5,6-tetrahydropyrimidin-2-yl)-amino]phenyl]carbonyl]amino]benzenepropanoic acid, trifluoroacetate salt]	5.33	8.22	–
CC(C)OC(=O)NC(Cc1ccc(NC(=O)c2cccc(NC(N)=NC(N)=O)c2)cc1)C(=O)O (centres unmarked) [Example 105, 4-[[[3-[[amino[(aminocarbonyl)imino]methyl]-amino]phenyl]carbonyl]amino]-N-[(1-methylethoxy]carbonyl]phenylalanine, bis(trifluoroacetate) salt]	6.57	8.70	–
CC(C)CC(=O)NC(Cc1ccc(NC(=O)c2cccc(NC(=N)N)c2)cc1)C(=O)O (centres unmarked) [Example 106, 4-[[[3-[(aminoiminomethyl]amino]phenyl]-carbonyl]amino]-N-[(3-methyl-1-oxobutyl)-phenylalanine, bis(trifluoroacetate) salt]	7.11	–	8.30
CC(C)CC(=O)N[C@@H](Cc1ccc(NC(=O)c2cc(NC3=NCCCN3)cc(C(F)(F)F)c2)cc1)C(=O)O [Example 107, N-(3-methyl-1-oxobutyl)-4-[[[3-[(1,4,5,6-tetrahydro-pyrimidin-2-yl)amino]-5-(trifluoromethyl)phenyl]-carbonyl]amino]phenylalanine, trifluoroacetate salt]	5.80	9.30	–
CC(C)CC(=O)NC(Cc1ccc(NC(=O)c2cc(NC(=N)N)cc(C(F)(F)F)c2)cc1)C(=O)O (centres unmarked) [Example 108, 4-[[[3-[(aminoiminomethyl)amino]-5-(trifluoromethyl)-phenyl]carbonyl]amino]-N-(3-methyl-1-oxobutyl) phenylalanine, trifluoroacetate salt]	6.96	8.40	–
O=C(Nc1ccc(C[C@H](NS(=O)(=O)c2ccccc2)C(=O)O)cc1)c1cccc(NC2=NCCCN2)c1 [Example 111, N-(phenylsulfonyl)-4-[[[3-[(1,4,5,6-tetrahydro-pyrimidin-2-yl)amino]phenyl]carbonyl]amino]-phenylalanine, trifluoroacetate salt]	8.22	10.00	–

From patent publication EP1157985A1 (G.D. SEARLE & CO., priority 1996, dated 1997)
